Measured values published in patent publication US9586999B2, “Methods and compositions related to improving properties of pharmacological agents targeting nervous system” (University of Utah Research Foundation, priority 2006, dated 2017).
Values joined by “and” are separate entries in the source; they are usually repeats but may differ in a detail not shown here. Identical values can stand only once. “Also recorded” adds a separate entry of the source. Like-named read-outs stand apart in the source and are kept apart here. Square brackets hold non-standard residues; d marks the D form. Ends that are not written are not given here. Ahx = NCCCCCC(=O)O

Tests used:
[1] = system: 6 Hz limbic seizures; assay: 6 Hz limbic (psychomotor) seizure test; type: in vivo, mouse; details: for % Protection at 30 min (4 mg/kg, i.p.): octreotide and DSIP analogs; for ED50: Mus musculus, ip; for ED50 / ED50 in the 6 Hz limbic seizure model (in Table 14 in parentheses): i.p.; for effect against 6 Hz (22 mA) limbic seizures: administered into the ventricular space, CF-1 mice; for % Protection at 1, 2 and 4 hours afforded by a dose of 4 mg/kg, i.p. (result in words): all time points; for ED50 in the 6 Hz limbic seizure model (in Table 14 in parentheses): SAR analogs
Source text: Mice not displaying limbic seizures were considered protected.
As mentioned above, the 6 Hz seizure becomes more resistant to block by antiepileptic drugs as the current is increased from 22 mA to 44 mA.

[2] = system: sound-induced seizures; assay: Frings audiogenic seizure-susceptible mouse model of reflex epilepsy; type: in vivo
Source text: (§1) The ability of individual modified peptides to prevent seizures induced by sound in the AGS-susceptible Frings mouse model can be assessed at the time of peak effect (White et al., 1992). For this test, individual mice are placed into a plexiglass cylinder (diameter, 15 cm; height, 18 cm) fitted with an audio transducer (Model AS-ZC; FET Research and Development, Salt Lake City, Utah), and exposed to a sound stimulus of 110 decibels (11 KHz) delivered for 20 seconds. Sound-induced seizures are characterized by wild running followed by loss of righting reflex with forelimb and hindlimb tonic extension. Mice not displaying hindlimb tonic extension are considered protected.
The two modified galanin analogs (GAL-BBB1 and GAL-BBB2) were administered i.p. to a group of Frings audiogenic seizure susceptible mice in a dose of 4 mg/kg. At various times after administration (i.e., 15, 30, 60, 120, and 240 min) each mouse was placed into a cylindrical test chamber fitted with an audio transducer and challenged with a high-intensity sound stimulus (110 dB, 11 KHz for 20 sec). Animals not displaying tonic hind-limb extension were considered protected. […] In a subsequent study, anticonvulsant efficacy was quantitated at the time to peak effect (i.e., 1 h) in a dose-response study.
as §1, with “analogs” for “peptides”
At various times after administration (i.e., 15, 30, 60, 120, and 240 min) each mouse was placed into a cylindrical test chamber fitted with an audio transducer and challenged with a high-intensity sound stimulus (110 dB, 11 KHz for 20 sec).

[3] = system: formalin-induced paw licking; assay: Mouse formalin test of inflammatory pain; type: in vivo; details: for phase II response at the active dose: mouse formalin assay; for Active at: mouse formalin assay of inflammatory pain; for potency in mouse formalin assay: in vivo
Method: An injection of 0.5% formalin is made into the planter region of a mouse right hind paw. This elicits a distinct biphasic behavioral profile characterized by the mouse licking the affected paw. Immediately following the injection the mouse licks the paw for about 10 minutes. This is phase 1 (acute) and is followed by a brief latent period where there is little behavioral activity. A more prolonged period of about 20 to 30 minutes of paw licking ensues which constitutes phase 2 (inflammatory).
Prior to the administration of the active peptide, drug or vehicle each mouse undergoes a 15-minute conditioning period in one of several 6″ tall plexiglass observation tubes (4″ diameter) that are placed in front of a mirror. […] One hour after treatment, formalin was injected sub-dermally (20 μl; 27 gauge needle) into the plantar surface of the right hind foot. The bevel of the needle is placed facing down toward the skin surface. Following the injection of the formalin each animal is observed for first 2 minutes of each 5 minute epoch for a total of 45 minutes. The cumulative length of licking for each 2 minute time period was measured. An animal receiving the requisite volume of vehicle was alternated with each mouse given GAL-BBB2, Gal 1-16, or gabapentin. Animals were euthanized following the conclusion of the experiment.
Area under the curve (AUC) determination was made using the GraphPad Prism Version 3.03. Total AUC is calculated for both the test and control groups for both the acute and inflammatory phases. The AUC for individual animals for each phase is also calculated and converted to percentage of total AUC of control. The average percentages and SEM for both the drug treated and control were calculated and tested for significant difference.

[4] = stimulus intensity 22 mA, read-out: 22 mA (ED50, 6 Hz model)
[5] = stimulus intensity 44 mA, read-out: 44 mA (ED50, 6 Hz model)
[6] = stimulus intensity 32 mA, read-out: 32 mA (ED50, 6 Hz model)

[Ahx]GGWAGGDFSGE [SEQ ID NO: 142]
% Protection at 30 min (4 mg/kg, i.p.) ([1]; 4 mg/kg i.p.): 50% | % Protection after 2 hours ([1]; 2 hours, 4 mg/kg i.p.): NO: 142) (100% after 2 hours)

CCCC(CCC)C(=O)O [Valproic acid, reference compound]
ED50 [1, 4]: 41.5 mg/kg | ED50 [1, 5]: 310 mg/kg

WAGGDFSGE [DSIP, reference compound]
% Protection at 30 min (4 mg/kg, i.p.) ([1]; 4 mg/kg i.p.): 0% | effect against 6 Hz (22 mA) limbic seizures [1]: effective

(Sar)WTLNSAGYLLKK(Lys-P)K [NAX 1205-5]
% Protection at 2 hours afforded by a dose of 4 mg/kg, i.p. ([1]; 4 mg/kg i.p.): 25% | % Protection at 4 hours afforded by a dose of 4 mg/kg, i.p. ([1]; 4 mg/kg i.p.): 0%

DPhe-Cys-Phe-DTrp-Lys-Thr-Cys-Thr-NH2 [SEQ ID NO: 148, reference compound]
% Protection at 30 min (4 mg/kg, i.p.) ([1]; 4 mg/kg i.p.): 50%

Nc1nnc(-c2cccc(Cl)c2Cl)c(N)n1 [Lamotrigine, reference compound]
ED50 [1, 4]: 4.4 mg/kg | ED50 [1, 6]: > 60 mg/kg | ED50 [1, 5]: > 60 mg/kg

GWTLNSAGYLLGPHAV [Gal(1-16), reference compound]
% Protection at 1, 2 and 4 hours afforded by a dose of 4 mg/kg, i.p. (result in words) ([1]; 4 mg/kg i.p.): Not active | ED50 following i.c.v. administration ([1]; intracerebroventricular, 6 Hz (32 mA)): 1.7 nmol | anticonvulsant activity of native fragment ([2]; 20 mg/kg i.p.): inactive; also recorded: but not the native GAL(1-16) fragment (20 mg/kg) was effective | activity of native fragment in formalin test ([3]; 20 mg/kg i.p.): inactive

CCC1(C)CC(=O)NC1=O (centres unmarked) [Ethosuximide, reference compound]
ED50 [1, 4]: 86.9 mg/kg | ED50 [1, 6]: 167 mg/kg | ED50 [1, 5]: 600 mg/kg

(Sar)WTLNSAGYKK(Lys-P)K [NAX 306-3]
% Protection at 2 hours afforded by a dose of 4 mg/kg, i.p. ([1]; 4 mg/kg i.p.): 25% | % Protection at 4 hours afforded by a dose of 4 mg/kg, i.p. ([1]; 4 mg/kg i.p.): 0% | ED50 in the 6 Hz limbic seizure model (in Table 14 in parentheses) [1]: (2.7 mg/kg) | phase II response at the active dose [3]: (“flat phase II”) | Active at [3]: 2.7 mg/kg | potency in mouse formalin assay [3]: potent

(Sar)WTLNSAGY(Ahx)KK(Lys-P)K [NAX 306-4]
% Protection at 2 hours afforded by a dose of 4 mg/kg, i.p. ([1]; 4 mg/kg i.p., 4 mg/kg): 0% and 0%, 0% | % Protection at 4 hours afforded by a dose of 4 mg/kg, i.p. ([1]; 4 mg/kg i.p., 4 mg/kg): 0% and 0%, 0% | ED50 in the 6 Hz limbic seizure model (in Table 14 in parentheses) [1]: (2.95 mg/kg) | activity in the second response phase of the inflammatory pain assay ([3]; 2.95 mg/kg): very active | phase II response at the active dose [3]: (“flat phase II”) | Active at [3]: 2.9 mg/kg | potency in mouse formalin assay [3]: potent

Sar-Trp-Thr-Leu-Asn-Ser-Ala-Gly-Tyr-Leu-Leu-Gly-Pro-His-(Lys-palm)-Tle-NH2 [GAL-BBB1]
anticonvulsant activity (protection from tonic hind-limb extension) ([2]; 4 mg/kg i.p., 15-240 min, also higher dose of 12 mg/kg): not active at any time point tested

Lys-Lys-Lys(palm)-Lys-Ahx-DPhe-Cys-Phe-DTrp-Lys-Thr-Cys-Thr-NH2 [SEQ ID NO: 149]
% Protection at 30 min (4 mg/kg, i.p.) ([1]; 4 mg/kg i.p.): 100%

(Sar)WTLNSAGYLLGPRR(Lys-P)R [NAX 1205-3]
% Protection at 2 hours afforded by a dose of 4 mg/kg, i.p. ([1]; 4 mg/kg i.p.): 75% | % Protection at 4 hours afforded by a dose of 4 mg/kg, i.p. ([1]; 4 mg/kg i.p.): 0%

(Sar)WTLNSAGYLLGPHA(Lys-P) [NAX 306-5]
% Protection at 1, 2 and 4 hours afforded by a dose of 4 mg/kg, i.p. (result in words) ([1]; 4 mg/kg i.p.): Not active

O=C1NC(=O)C(c2ccccc2)(c2ccccc2)N1 [Phenytoin, reference compound]
ED50 [1, 4]: 9.4 mg/kg | ED50 [1, 6]: > 60 mg/kg | ED50 [1, 5]: > 60 mg/kg

C[C@H](N)C(=O)NCC(=O)N[C@H]1CSSC[C@@H](C(=O)O)NC(=O)[C@H](CO)NC(=O)[C@H]([C@@H](C)O)NC(=O)[C@H](Cc2ccccc2)NC(=O)[C@H]([C@@H](C)O)NC(=O)[C@H](CCCCN)NC(=O)[C@H](Cc2c[nH]c3ccccc23)NC(=O)[C@H](Cc2ccccc2)NC(=O)[C@H](Cc2ccccc2)NC(=O)[C@H](CC(N)=O)NC(=O)[C@H](CCCCN)NC1=O [somatostatin, reference compound]
effect against 6 Hz (22 mA) limbic seizures [1]: effective

(Sar)WTLNSAGYLLGPDKDK(Lys-P)DK [NAX 1205-2]
% Protection at 2 hours afforded by a dose of 4 mg/kg, i.p. ([1]; 4 mg/kg i.p.): 50% | % Protection at 4 hours afforded by a dose of 4 mg/kg, i.p. ([1]; 4 mg/kg i.p.): 75% | ED50 in the 6 Hz limbic seizure model (in Table 14 in parentheses) [1]: (1.2 mg/kg)
